Source: patent US20090247559A1 (Exelixis, Inc., priority 2007, published 2009)
Read-outs that look alike come from different tables or passages of the source.

How the values were obtained:
CK2 = CK2 (Homo sapiens, UniProt P68400); assay: CK2 inhibition, biochemical chemiluminescence holoenzyme assay (Kinase Glo, IC50 determination); conditions: Table 1 activity class; symbol given only if active; read-out: CK2 IC50 (Activity C)
How it was run: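 Holoenzyme CK2 assay; compounds pre-incubated with substrate and enzyme, then reacted 150 min at 24-27° C. Remaining ATP measured as luminescence with Kinase Glo, and IC50 derived from the signal.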

[1] = biological target: PIM (PIM-1, PIM-2, and/or PIM-3); assay: PIM-1, PIM-2 and PIM-3 inhibition, biochemical chemiluminescence assays (Kinase Glo, IC50 determination); conditions: Table 1 activity class; PIM refers to PIM-1, PIM-2, and/or PIM-3; read-out: PIM IC50 (Activity B)
CDC7 = CDC7 (Homo sapiens, UniProt O00311); assay: CDC7 inhibition, biochemical chemiluminescence assay (Kinase Glo, IC50 determination)
CDC7, sequence (O00311 whole entry): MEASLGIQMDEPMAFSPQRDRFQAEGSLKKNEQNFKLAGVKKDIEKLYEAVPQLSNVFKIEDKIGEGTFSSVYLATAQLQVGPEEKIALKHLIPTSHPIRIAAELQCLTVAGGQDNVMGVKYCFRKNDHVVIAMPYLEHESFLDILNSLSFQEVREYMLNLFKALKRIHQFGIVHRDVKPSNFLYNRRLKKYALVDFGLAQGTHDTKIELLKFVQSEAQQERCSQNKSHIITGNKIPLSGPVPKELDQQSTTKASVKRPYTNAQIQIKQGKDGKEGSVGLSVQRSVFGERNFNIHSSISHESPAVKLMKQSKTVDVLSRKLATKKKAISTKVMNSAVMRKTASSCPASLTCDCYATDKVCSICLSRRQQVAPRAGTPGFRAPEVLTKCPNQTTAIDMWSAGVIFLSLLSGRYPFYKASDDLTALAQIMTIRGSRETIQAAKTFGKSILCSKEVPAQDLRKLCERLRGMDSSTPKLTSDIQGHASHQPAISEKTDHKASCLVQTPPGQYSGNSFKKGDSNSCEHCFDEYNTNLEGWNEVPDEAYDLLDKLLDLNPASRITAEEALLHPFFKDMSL
CDC7, sequence (Q9UBU7 whole entry partner): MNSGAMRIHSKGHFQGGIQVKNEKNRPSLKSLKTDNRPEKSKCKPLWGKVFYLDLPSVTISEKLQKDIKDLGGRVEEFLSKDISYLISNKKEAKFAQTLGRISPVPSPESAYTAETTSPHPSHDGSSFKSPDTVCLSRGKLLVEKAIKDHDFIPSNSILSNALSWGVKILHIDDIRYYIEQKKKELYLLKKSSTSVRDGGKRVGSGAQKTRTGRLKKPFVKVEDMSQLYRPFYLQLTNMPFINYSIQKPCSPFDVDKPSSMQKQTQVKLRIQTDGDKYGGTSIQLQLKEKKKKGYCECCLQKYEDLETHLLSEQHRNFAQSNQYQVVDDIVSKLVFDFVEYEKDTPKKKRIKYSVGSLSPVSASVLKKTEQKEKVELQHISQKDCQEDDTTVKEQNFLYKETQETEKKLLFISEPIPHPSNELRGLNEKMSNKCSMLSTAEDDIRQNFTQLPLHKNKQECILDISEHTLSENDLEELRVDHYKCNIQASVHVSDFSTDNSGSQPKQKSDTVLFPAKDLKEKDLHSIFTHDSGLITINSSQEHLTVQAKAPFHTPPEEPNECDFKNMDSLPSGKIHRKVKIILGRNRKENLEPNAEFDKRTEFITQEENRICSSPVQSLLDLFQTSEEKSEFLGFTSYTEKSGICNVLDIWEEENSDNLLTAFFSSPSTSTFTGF
Procedure: Characterization of CDC7 Inhibition in a Biochemical Chemiluminesence Assay (IC50 Determination):
The IC50 evaluation of compounds against the CDC7 enzyme was performed in a Chemiluminesence assay utilizing a Greiner 384-well white binding plate format. […] Upon addition of 10 μL of CDC-7 (GB) to the designated well plates and subsequent incubation for ten minutes at ambient temperature, 10 μL of ATP mix in Tris Base was added. Following an incubation period of 90 minutes at ambient temperature (24-27° C.), 20 μL of Kinase Glo (Promega) was added to measure kinase activity by quantitating the amount of ATP remaining in solution. The luminescence was measured following a Luciferase Protocol on either EnVision or Victor plate readers.

[2] = Table 1 activity class, symbol given only if active, read-out: CDC7 IC50 (Activity A)
[3] = compounds in Table 1, read-out: CDC7 IC50 value

CK2, sequence (P68400 whole entry): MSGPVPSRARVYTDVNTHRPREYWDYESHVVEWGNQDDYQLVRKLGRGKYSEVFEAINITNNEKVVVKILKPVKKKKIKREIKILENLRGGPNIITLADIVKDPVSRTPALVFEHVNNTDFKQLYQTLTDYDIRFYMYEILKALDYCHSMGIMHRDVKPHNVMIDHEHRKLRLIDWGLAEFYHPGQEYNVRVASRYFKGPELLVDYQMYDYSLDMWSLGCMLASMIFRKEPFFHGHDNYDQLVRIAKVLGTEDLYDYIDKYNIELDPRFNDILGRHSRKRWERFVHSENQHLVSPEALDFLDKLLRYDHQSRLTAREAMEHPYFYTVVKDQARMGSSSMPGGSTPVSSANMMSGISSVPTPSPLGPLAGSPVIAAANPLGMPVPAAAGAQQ
CK2, sequence (P67870 whole entry partner): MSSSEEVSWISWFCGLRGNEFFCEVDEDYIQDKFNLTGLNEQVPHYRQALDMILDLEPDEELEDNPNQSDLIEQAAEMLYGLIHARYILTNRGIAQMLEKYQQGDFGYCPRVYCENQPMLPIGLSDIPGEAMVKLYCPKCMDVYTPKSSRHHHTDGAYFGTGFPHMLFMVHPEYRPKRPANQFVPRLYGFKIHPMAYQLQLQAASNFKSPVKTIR

Row | Compound | IC50 (CK2) [µM] | IC50 [1] [µM] | IC50 (CDC7; [2]) [µM] | IC50 (CDC7; [3]) [µM] | IC50 (CDC7; CDC7 IC50 (Activity A), Table 1 activity class, symbol given only if active) [µM] | IC50 (CDC7; CDC7 IC50 value, compounds in Table 1) [µM]
1 | O=c1[nH]c(CN2CC3CCC2C3O)nc2c1oc1ccc(Br)cc12 (racemic) [Compound 332, 8-bromo-2-((7-hydroxy-2-azabicyclo[2.2.1]heptan-2-yl)methyl)benzofuro[3,2-d]pyrimidin-4(3H)-one] | < 10 | < 10 | < 10 | < 0.1 | – | –
2 | CN1C[C@@H]2C[C@H]1CN2Cc1nc2c(oc3ccc(Br)cc32)c(=O)[nH]1 [Compound 142, 8-bromo-2-{[(1S,4S)-5-methyl-2,5-diazabicyclo[2.2.1]hept-2-yl]methyl}[1]benzofuro[3,2-d]pyrimidin-4(3H)-one] | – | – | < 10 | – | – | –
3 | O=c1[nH]c(-c2ccc(CNC3CCNCC3)cc2Cl)nc2c1oc1ccc(Br)cc12 [Compound 387, 8-bromo-2-{2-chloro-4-[(piperidin-4-ylamino)methyl]phenyl}[1]benzofuro[3,2-d]pyrimidin-4(3H)-one] | – | – | < 10 | – | – | –
4 | O=c1[nH]c(Cc2ccccc2Br)nc2c1oc1ccc(Br)cc12 [Compound 421, 8-bromo-2-[(2-bromophenyl)methyl][1]benzofuro[3,2-d]pyrimidin-4(3H)one] | – | < 10 | < 10 | < 0.1 | – | –
5 | O=c1[nH]c(CNCCN2CCCCC2)nc2c1oc1ccc(Br)cc12 [Compound 431, 8-bromo-2-{[(2-piperidin-1-ylethyl)amino]methyl}[1]benzofuro[3,2-d]pyrimidin-4(3H)-one] | – | < 10 | < 10 | – | – | –
6 | O=c1[nH]c([C@@H]2CC(F)(F)CN2)nc2c1oc1ccc(Cl)cc12 [Compound 524, 8-chloro-2-[(2S)-4,4-difluoropyrrolidin-2-yl][1]benzofuro[3,2-d]pyrimidin-4(3H)-one] | – | < 10 | < 10 | < 0.1 | – | –
7 | O=c1[nH]c([C@@H]2C[C@H](F)CN2)nc2c1oc1ccc(Cl)cc12 [Compound 525, 8-chloro-2-[(2S,4S)-4-fluoropyrrolidin-2-yl][1]benzofuro[3,2-d]pyrimidin-4(3H)-one] | – | < 10 | < 10 | < 0.1 | – | –
8 | COc1ccc2oc3c(=O)[nH]c([C@@H]4C[C@H](F)CN4)nc3c2c1 [Compound 530, 2-[(2S,4S)-4-fluoropyrrolidin-2-yl]-8-(methyloxy)[1]benzofuro[3,2-d]pyrimidin-4(3H)-one] | – | < 10 | < 10 | < 0.1 | – | –
9 | NC(Cc1ccccc1)c1nc2c(oc3ccc(Br)cc32)c(=O)[nH]1 (stereo not drawn) [Compound 535, 2-(1-amino-2-phenylethyl)-8-bromo[1]benzofuro[3,2-d]pyrimidin-4(3H)-one] | – | < 10 | < 10 | – | – | –
10 | NC(Cc1ccc(OCc2ccccc2)cc1)c1nc2c(oc3ccc(Br)cc32)c(=O)[nH]1 (stereo not drawn) [Compound 536, 2-(1-amino-2-{4-[(phenylmethyl)oxy]phenyl}ethyl)-8-bromo[1]benzofuro[3,2-d]pyrimidin-4(3H)-one] | – | < 10 | < 10 | – | – | –
11 | COc1ccc(CC(N)c2nc3c(oc4ccc(Br)cc43)c(=O)[nH]2)cc1 (stereo not drawn) [Compound 539, 2-{1-amino-2-[4-(methyloxy)phenyl]ethyl}-8-bromo[1]benzofuro[3,2-d]pyrimidin-4(3H)-one] | – | < 10 | < 10 | – | – | –
12 | NC(c1nc2c(oc3ccc(Br)cc32)c(=O)[nH]1)C1CCCCC1 (stereo not drawn) [Compound 541, 2-[amino(cyclohexyl)methyl]-8-bromo[1]benzofuro[3,2-d]pyrimidin-4(3H)-one] | – | < 10 | < 10 | < 0.1 | – | –
13 | NC1(c2nc3c(oc4ccc(Br)cc43)c(=O)[nH]2)CCCCC1 [Compound 542, 2-(1-aminocyclohexyl)-8-bromo[1]benzofuro[3,2-d]pyrimidin-4(3H)-one] | < 10 | – | – | – | < 10 | < 0.1
14 | O=c1[nH]c(-c2ccc(NCC3CCCNC3)cc2Cl)nc2c1oc1ccc(Br)cc12 (stereo not drawn) [Cpd 159, 8-bromo-2-{2-chloro-4-[(piperidin-3-ylmethyl)amino]phenyl}[1]benzofuro[3,2-d]pyrimidin-4(3H)-one] | < 10 | – | < 10 | – | – | –

Continued, in another order:

Row | IC50 (CK2) [µM] | IC50 [1] [µM] | IC50 (CDC7; [2]) [µM] | IC50 (CDC7; [3]) [µM] | Compound | IC50 (CDC7; CDC7 IC50 (Activity A), Table 1 activity class, symbol given only if active) [µM] | IC50 (CDC7; CDC7 IC50 value, compounds in Table 1) [µM]
15 | < 10 | < 10 | < 10 | – | COc1ccc2oc3c(=O)[nH]c(C4CCCN4)nc3c2c1 (stereo in doubt) [Compound 494, 8-(methyloxy)-2-[(2S)-pyrrolidin-2-yl][1]benzofuro[3,2-d]pyrimidin-4(3H)-one] | – | –
16 | < 10 | < 10 | < 10 | < 0.1 | COc1ccc2oc3c(=O)[nH]c(C4CCCN4)nc3c2c1 (stereo in doubt) [Compound 495, 8-(methyloxy)-2-[(2R)-pyrrolidin-2-yl][1]benzofuro[3,2-d]pyrimidin-4(3H)-one] | – | –
17 | < 10 | < 10 | < 10 | – | NC(CCc1ccccc1)c1nc2c(oc3ccc(Br)cc32)c(=O)[nH]1 (stereo in doubt) [Compound 537, 2-[(1S)-1-amino-3-phenylpropyl]-8-bromo[1]benzofuro[3,2-d]pyrimidin-4(3H)-one] | – | –
18 | < 10 | < 10 | < 10 | < 0.1 | O=c1[nH]c(CN2CCCC2)nc2c1oc1ccc(Cl)cc12 [Compound 5, 8-chloro-2-(pyrrolidin-1-ylmethyl)[1]benzofuro[3,2-d]pyrimidin-4(3H)-one] | – | –
19 | – | < 10 | < 10 | – | CN(C)CCCN1CCN(Cc2nc3c(oc4ccc(Br)cc43)c(=O)[nH]2)CC1 [Compound 9, 8-bromo-2-({4-[3-(dimethylamino)propyl]piperazin-1-yl}methyl)[1]benzofuro[3,2-d]pyrimidin-4(3H)-one] | – | –
20 | < 10 | < 10 | < 10 | – | O=c1[nH]c(CNc2cccnc2)nc2c1oc1ccc(Br)cc12 [Compound 13, 8-bromo-2-[(pyridin-3-ylamino)methyl][1]benzofuro[3,2-d]pyrimidin-4(3H)-one] | – | –
21 | < 10 | < 10 | < 10 | – | CN(C)C(=O)CN1CCN(Cc2nc3c(oc4ccc(Br)cc43)c(=O)[nH]2)CC1 [Compound 25, 2-{4-[(8-bromo-4-oxo-3,4-dihydro[1]benzofuro[3,2-d]pyrimidin-2-yl)methyl]piperazin-1-yl}-N,N-dimethylacetamide] | – | –
22 | < 10 | < 10 | < 10 | – | O=c1[nH]c(-c2ccc([N+](=O)[O-])cc2Cl)nc2c1oc1ccc(Br)cc12 [Compound 33, 8-Bromo-2-(2-chloro-4-nitrophenyl)[1]benzofuro[3,2-d]pyrimidin-4(3H)-one] | – | –
23 | < 10 | < 10 | < 10 | – | Nc1ccc(-c2nc3c(oc4ccc(Br)cc43)c(=O)[nH]2)c(Cl)c1 [Compound 34, 2-(4-Amino-2-chlorophenyl)-8-bromo[1]benzofuro[3,2-d]pyrimidin-4(3H)-one] | – | –
24 | < 10 | < 10 | < 10 | – | O=c1[nH]c(-c2ccccc2I)nc2c1oc1ccc(Br)cc12 [Compound 40, 8-bromo-2-(2-iodophenyl)[1]benzofuro[3,2-d]pyrimidin-4(3H)-one] | – | –
25 | < 10 | < 10 | < 10 | – | O=c1[nH]c(-c2ccncc2Br)nc2c1oc1ccc(Br)cc12 [Compound 43, 8-bromo-2-(3-bromopyridin-4-yl)[1]benzofuro[3,2-d]pyrimidin-4(3H)-one] | – | –
26 | < 10 | < 10 | < 10 | – | O=c1[nH]c(-c2ccccc2-n2ccnc2)nc2c1oc1ccc(Br)cc12 [Compound 48, 8-bromo-2-[2-(1H-imidazol-1-yl)phenyl][1]benzofuro[3,2-d]pyrimidin-4(3H)-one] | – | –
27 | – | – | < 10 | < 0.1 | O=c1[nH]c(CN2CC(O)C2)nc2c1oc1ccc(Br)cc12 [Compound 183, 8-bromo-2-[(3-hydroxyazetidin-1-yl)methyl][1]benzofuro[3,2-d]pyrimidin-4(3H)-one] | – | –
28 | < 10 | – | < 10 | – | O=C(NCc1ccccc1)C1CCN(Cc2nc3c(oc4ccc(Br)cc43)c(=O)[nH]2)C1 (stereo not drawn) [Compound 266, 1-[(8-bromo-4-oxo-3,4-dihydro[1]benzofuro[3,2-d]pyrimidin-2-yl)methyl]-N-(phenylmethyl)pyrrolidine-3-carboxamide] | – | –
29 | < 10 | – | < 10 | < 0.1 | O=c1[nH]c(C2CNCCO2)nc2c1oc1ccc(Br)cc12 (stereo not drawn) [Compound 298, 8-Bromo-2-morpholin-2-yl[1]benzofuro[3,2-d]pyrimidin-4(3H)-one] | – | –
30 | – | – | < 10 | – | CN1C[C@@H]2CC[C@H]1CN2Cc1nc2c(oc3ccc(Br)cc32)c(=O)[nH]1 [Compound 330, 8-bromo-2-{[(1S,4S)-5-methyl-2,5-diazabicyclo[2.2.2]oct-2-yl]methyl}[1]benzofuro[3,2-d]pyrimidin-4(3H)-one] | – | –
31 | – | – | < 10 | < 0.1 | O=C(NCCN1CCCCC1)c1ccc(-c2nc3c(oc4ccc(Br)cc43)c(=O)[nH]2)c(Cl)c1 [Compound 383, 4-(8-bromo-4-oxo-3,4-dihydro[1]benzofuro[3,2-d]pyrimidin-2-yl)-3-chloro-N-(2-piperidin-1-ylethyl)benzamide] | – | –
